Experimental data: patent US10933059B2, “Combination, application thereof and treatment method” (KANGPU BIOPHARMACEUTICALS, LTD., priority 2016, dated 2021)

Key:
Format in all cases: cell-based
Vcap cells = assay: CTG cell proliferation assay on Vcap cells (compounds alone or in combination, 5 days); conditions: for viability at 0.1 µM / viability at 1 µM / viability at 10 µM: Homo sapiens, VCaP, 120 h, read-out: Survival rate of Vcap cells; for Vcap cell proliferation inhibition rate: 5 days
Procedure: In vitro test of the inhibition effect of the compound in combination with androgen receptor pathway modulators on the prostate cancer cell proliferation.
Inhibition effect of the compounds such as B101, B102, B103, B104, B105, B106, C111 and the like, androgen receptor pathway modulators, hormone compounds, alone or in combination with each other on the prostate cancer cell proliferation were tested on Vcap cells (androgen receptor (+) prostate cancer cells) (ATCC, catalogue number CRL-2876). The specific experimental operation was as follows: 5×10^3 Vcap cells per well were inoculated into 96-well plates with transparent bottom and white wall (Corning, catalogue number CLS3903) containing the specific medium, and were cultured in a 37° C., 5% CO2 incubator for 24 hours. The tested compounds and the androgen receptor pathway modulators were prepared to a 150 mM stocking solution with DMSO (Sigma, catalogue number 276855), diluted with culture medium to the desired concentrations (the final concentration of DMSO is 0.2%), and then added to each well, 2 wells/concentration, followed by being incubated in a 37° C., 5% CO2 incubator for 5 days. The tested compounds were used alone or in combination with other androgen receptor pathway modulators and/or hormone compounds respectively. […] After that, 100 μl of CellTiter-Glo® cell viability assay reagent (Promega, catalogue number G7570) was added to each well and mixed well on a vibrator for 10 minutes to induce cell lysis. The 96-well plate was placed at room temperature for 10 minutes, so as to stabilize its luminescence signal. A white bottom membrane was pasted on the bottom of the plate and the plate was tested using EnSpire.

LNCap cells = assay: CTG cell proliferation assay on LNCap cells (method of Effect embodiment 1)
PSA (Prostate antigen) = assay: PSA inhibition rate experiment (PSA secretion in supernatant of VCap cells); conditions: Homo sapiens, 120 h
Procedure: Cells were collected in exponential growth phase for viable cell count. The cell suspension was adjusted to 4.17×10E4/ml with the medium mentioned above. 120 μl of cell suspension was added to each well of a 96-well cell culture plateat, a final concentration of cells was 5000 cells/well. The cells were incubated overnight in a 37° C., 5% CO2 incubator.
10 mM stocking solution was prepared by dissolving each tested compound in DMSO. […] The final concentration of DMSO per well was 0.2%. The cells were incubated for 5 days in a 37° C., 5% CO2 incubator.
After 5 days' drug treatment, the cell supernatant of each well was collected, and centrifuged at 2000 r/min for 5 minutes, then transferred to a clean EP tube for PSA detection.
Wherein, Vsample is the PSA reading of the drug treatment group, and VDMSO is the average value of PSA of the solvent control group.

[1] = tested compound 0.1 μM in combination with 1 μM ARN-509
[2] = tested compound 0.1 μM in combination with 1 μM Abiraterone acetate
[3] = tested compound 0.1 μM in combination with 1 μM Enzalutamide
[4] = tested compound 0.1 μM in combination with 1 μM Galeterone
[5] = tested compound 0.1 μM in combination with 1 μM ODM-201
[6] = tested compound 1 μM in combination with 1 μM ARN-509
[7] = tested compound 1 μM in combination with 1 μM Abiraterone acetate
[8] = tested compound 1 μM in combination with 1 μM Enzalutamide
[9] = tested compound 1 μM in combination with 1 μM Galeterone
[10] = tested compound 1 μM in combination with 1 μM ODM-201
[11] = tested compound 10 μM in combination with 1 μM ARN-509
[12] = tested compound 10 μM in combination with 1 μM Abiraterone acetate
[13] = tested compound 10 μM in combination with 1 μM Enzalutamide
[14] = tested compound 10 μM in combination with 1 μM Galeterone
[15] = tested compound 10 μM in combination with 1 μM ODM-201
[16] = tested compound 0.1 μM in combination with 1 μM B101
[17] = tested compound 0.1 μM in combination with 1 μM B105
[18] = tested compound 1 μM in combination with 1 μM B101
[19] = tested compound 1 μM in combination with 1 μM B105
[20] = tested compound 10 μM in combination with 1 μM B101
[21] = tested compound 10 μM in combination with 1 μM B105

Nc1cc(F)cc2c1CN(C1CCC(=O)NC1=O)C2=O (stereo not shown) [B101]
viability at 0.1 µM (Vcap cells; tested compound alone): 77.7% | viability at 1 µM (Vcap cells; tested compound alone, 1 μM): 65.4% | viability at 10 µM (Vcap cells; tested compound alone): 64.7% | Survival rate of Vcap cells (Vcap cells; [1]): 29.3% | Survival rate of Vcap cells (Vcap cells; [2]): 61.8% | Survival rate of Vcap cells (Vcap cells; [3]): 30.6% | Survival rate of Vcap cells (Vcap cells; [4]): 38.6% | Survival rate of Vcap cells (Vcap cells; [5]): 43.8% | Survival rate of Vcap cells (Vcap cells; [6]): 24.3% | Survival rate of Vcap cells (Vcap cells; [7]): 56.6% | Survival rate of Vcap cells (Vcap cells; [8]): 25.2% | Survival rate of Vcap cells (Vcap cells; [9]): 34.4% | Survival rate of Vcap cells (Vcap cells; [10]): 37.1% | Survival rate of Vcap cells (Vcap cells; [11]): 24.5% | Survival rate of Vcap cells (Vcap cells; [12]): 52.9% | Survival rate of Vcap cells (Vcap cells; [13]): 24.4% | Survival rate of Vcap cells (Vcap cells; [14]): 32.5% | Survival rate of Vcap cells (Vcap cells; [15]): 32.5% | Survival rate of LNCap cells (LNCap cells; [1]): 86.7% | Survival rate of LNCap cells (LNCap cells; [2]): 82.4% | Survival rate of LNCap cells (LNCap cells; [3]): 59.3% | Survival rate of LNCap cells (LNCap cells; [4]): 76.3% | Survival rate of LNCap cells (LNCap cells; [6]): 46.3% | Survival rate of LNCap cells (LNCap cells; [7]): 46.2% | Survival rate of LNCap cells (LNCap cells; [8]): 34.1% | Survival rate of LNCap cells (LNCap cells; [9]): 43.6% | Survival rate of LNCap cells (LNCap cells; [11]): 32.4% | Survival rate of LNCap cells (LNCap cells; [12]): 33.2% | Survival rate of LNCap cells (LNCap cells; [13]): 27.1% | Survival rate of LNCap cells (LNCap cells; [14]): 31.4% | Survival rate of LNCap cells (LNCap cells; tested compound alone, 0.1 μM): 99.6% | Survival rate of LNCap cells (LNCap cells; tested compound alone, 1 μM): 63% | Survival rate of LNCap cells (LNCap cells; tested compound alone, 10 μM): 42.4%

CNC(=O)c1ccc(N2C(=S)N(c3ccc(C#N)c(C(F)(F)F)c3)C(=O)C2(C)C)cc1F [Enzalutamide, reference compound]
Survival rate of LNCap cells (LNCap cells; tested compound alone, 0.1 μM): 101.5% | Survival rate of LNCap cells (LNCap cells; tested compound alone, 1 μM): 70.5% | Survival rate of LNCap cells (LNCap cells; tested compound alone, 1 μM, listed as enzalutamide): 70.5% | Survival rate of LNCap cells (LNCap cells; tested compound alone, 10 μM): 59.3% | inhibition at 0.5 µM (PSA (Prostate antigen)): 30.7%

CC(=O)O[C@H]1CC[C@@]2(C)C(=CC[C@@H]3[C@@H]2CC[C@]2(C)C(c4cccnc4)=CC[C@@H]32)C1 [Abiraterone acetate, reference compound]
viability at 0.1 µM (Vcap cells; tested compound alone): 106% | viability at 1 µM (Vcap cells; tested compound alone, 1 μM): 91.7% | Survival rate of Vcap cells (Vcap cells; [16]): 72.2% | Survival rate of Vcap cells (Vcap cells; [17]): 77.3% | Survival rate of Vcap cells (Vcap cells; [18]): 70.5% | Survival rate of Vcap cells (Vcap cells; [19]): 70.7% | Survival rate of Vcap cells (Vcap cells; [20]): 66.7% | Survival rate of Vcap cells (Vcap cells; [21]): 69.2% | Survival rate of LNCap cells (LNCap cells; tested compound alone, 0.1 μM): 109.2% | Survival rate of LNCap cells (LNCap cells; tested compound alone, 1 μM): 90.7% | Survival rate of LNCap cells (LNCap cells; tested compound alone, 10 μM): 45.2%

C[C@]12CC[C@H](O)CC1=CC[C@@H]1[C@@H]2CC[C@]2(C)C(n3cnc4ccccc43)=CC[C@@H]12 [Galeterone, reference compound]
viability at 0.1 µM (Vcap cells; tested compound alone): 95.9% | viability at 1 µM (Vcap cells; tested compound alone, 1 μM): 62.8% | viability at 10 µM (Vcap cells; tested compound alone): 19.3% | Survival rate of Vcap cells (Vcap cells; tested compound alone, 1 μM): 62.8% | Survival rate of LNCap cells (LNCap cells; tested compound alone, 0.1 μM): 104.9% | Survival rate of LNCap cells (LNCap cells; tested compound alone, 1 μM): 79% | Survival rate of LNCap cells (LNCap cells; tested compound alone, 10 μM): 24.2%

[2H][C@]1(N2Cc3c(N)cc(F)cc3C2=O)CCC(=O)NC1=O [B105]
Vcap cell proliferation inhibition rate (Vcap cells; B105 or C111 0.05 μM alone): 17.4% | Vcap cell proliferation inhibition rate (Vcap cells; B105 or C111 0.14 μM alone): 23.9% | Vcap cell proliferation inhibition rate (Vcap cells; B105 or C111 1.23 μM alone): 26.3% | Vcap cell proliferation inhibition rate (Vcap cells; B105 or C111 3.70 μM alone): 25.9% | Vcap cell proliferation inhibition rate (Vcap cells; B105 or C111 11.11 μM alone): 27.0% | Vcap cell proliferation inhibition rate (Vcap cells; B105 or C111 33.33 μM alone): 27.4% | Vcap cell proliferation inhibition rate (Vcap cells; B105 or C111 100.00 μM alone): 25.1% | Vcap cell proliferation inhibition rate (Vcap cells; B105 or C111 300.00 μM alone): 22.8% | viability at 0.1 µM (Vcap cells; tested compound alone): 83.3% | viability at 1 µM (Vcap cells; tested compound alone, 1 μM): 72.5% | viability at 10 µM (Vcap cells; tested compound alone): 72.7% | Survival rate of Vcap cells (Vcap cells; [1]): 30.6% | Survival rate of Vcap cells (Vcap cells; [2]): 65.0% | Survival rate of Vcap cells (Vcap cells; [3]): 31.6% | Survival rate of Vcap cells (Vcap cells; [4]): 40.9% | Survival rate of Vcap cells (Vcap cells; [5]): 43.3% | Survival rate of Vcap cells (Vcap cells; [6]): 28.0% | Survival rate of Vcap cells (Vcap cells; [7]): 57.1% | Survival rate of Vcap cells (Vcap cells; [8]): 27.5% | Survival rate of Vcap cells (Vcap cells; [9]): 36.7% | Survival rate of Vcap cells (Vcap cells; [10]): 36.6% | Survival rate of Vcap cells (Vcap cells; [11]): 27.0% | Survival rate of Vcap cells (Vcap cells; [12]): 58.0% | Survival rate of Vcap cells (Vcap cells; [13]): 27.5% | Survival rate of Vcap cells (Vcap cells; [14]): 36.3% | Survival rate of Vcap cells (Vcap cells; [15]): 32.2% | Survival rate of LNCap cells (LNCap cells; [1]): 82.6% | Survival rate of LNCap cells (LNCap cells; [2]): 83.7% | Survival rate of LNCap cells (LNCap cells; [3]): 57.5% | Survival rate of LNCap cells (LNCap cells; [4]): 73.4% | Survival rate of LNCap cells (LNCap cells; [6]): 44.7% | Survival rate of LNCap cells (LNCap cells; [7]): 47.9% | Survival rate of LNCap cells (LNCap cells; [8]): 32% | Survival rate of LNCap cells (LNCap cells; [9]): 40.6% | Survival rate of LNCap cells (LNCap cells; [11]): 32.4% | Survival rate of LNCap cells (LNCap cells; [12]): 31.7% | Survival rate of LNCap cells (LNCap cells; [13]): 25.8% | Survival rate of LNCap cells (LNCap cells; [14]): 30.6% | Survival rate of LNCap cells (LNCap cells; tested compound alone, 0.1 μM): 102.9% | Survival rate of LNCap cells (LNCap cells; tested compound alone, 1 μM): 61.5% | Survival rate of LNCap cells (LNCap cells; tested compound alone, 10 μM): 40.8%

CNC(=O)c1ccc(N2C(=S)N(c3cnc(C#N)c(C(F)(F)F)c3)C(=O)C23CCC3)cc1F [ARN-509, reference compound]
Survival rate of Vcap cells (Vcap cells; [16]): 42.7% | Survival rate of Vcap cells (Vcap cells; [17]): 45.3% | Survival rate of Vcap cells (Vcap cells; [18]): 39.2% | Survival rate of Vcap cells (Vcap cells; [19]): 38.6% | Survival rate of Vcap cells (Vcap cells; [20]): 38.4% | Survival rate of Vcap cells (Vcap cells; [21]): 38.0% | Survival rate of LNCap cells (LNCap cells; tested compound alone, 0.1 μM): 105.2% | Survival rate of LNCap cells (LNCap cells; tested compound alone, 1 μM): 86.7% | Survival rate of LNCap cells (LNCap cells; tested compound alone, 10 μM): 60.2%
